One may read the IC50 as the concentration that gives 50% inhibition. Low readings indicate higher potency, high ones lower potency.

Experimental findings from patent US9475817B2 (BRISTOL-MYERS SQUIBB COMPANY, priority 2012, dated 2016) are described below.

Test [1] concerns the target CK1ε (Homo sapiens (Human), UniProt P49674). The test can be described thus: CK1ε kinase assay (Caliper LabChip, fluoresceinated peptide substrate). It counts as biochemical. The conditions noted are these: 200 pM CK1ε, 50 μM ATP, 1.5 μM peptide substrate, 22 hours room temperature. The method, then:
(§1) CK1ε and CK1δ Kinase Assays
(§2) The kinase assay was performed in V-bottom 384-well plates. […] The reaction was incubated at room temperature for 22 hours and terminated by adding 45 μl of 35 mM EDTA to each sample. […] Compounds were dissolved at 10 mM in dimethylsulfoxide (DMSO) and evaluated at eleven concentrations. IC50 values were derived by non-linear regression analysis.

In test [2] the target is CK1δ (Homo sapiens (Human), UniProt P48730). The test can be described thus: CK1δ kinase assay (Caliper LabChip, fluoresceinated peptide substrate). It counts as biochemical. The conditions noted are these: 200 pM CK1δ, 50 μM ATP, 1.5 μM peptide substrate, 22 hours room temperature. The procedure:
as §1, §2

Sequence of CK1δ (P48730 whole entry): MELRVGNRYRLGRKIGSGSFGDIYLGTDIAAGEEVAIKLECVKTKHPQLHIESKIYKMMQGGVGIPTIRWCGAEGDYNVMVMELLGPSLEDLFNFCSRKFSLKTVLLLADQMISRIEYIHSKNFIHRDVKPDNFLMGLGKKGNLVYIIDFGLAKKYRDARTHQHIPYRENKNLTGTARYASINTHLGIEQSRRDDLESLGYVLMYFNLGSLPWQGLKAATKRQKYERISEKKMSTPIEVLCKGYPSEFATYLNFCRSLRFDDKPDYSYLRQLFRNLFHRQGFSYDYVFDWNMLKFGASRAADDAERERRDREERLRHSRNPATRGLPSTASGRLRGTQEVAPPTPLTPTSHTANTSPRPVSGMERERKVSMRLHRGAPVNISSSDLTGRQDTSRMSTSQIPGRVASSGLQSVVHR
Sequence of CK1ε (P49674 whole entry): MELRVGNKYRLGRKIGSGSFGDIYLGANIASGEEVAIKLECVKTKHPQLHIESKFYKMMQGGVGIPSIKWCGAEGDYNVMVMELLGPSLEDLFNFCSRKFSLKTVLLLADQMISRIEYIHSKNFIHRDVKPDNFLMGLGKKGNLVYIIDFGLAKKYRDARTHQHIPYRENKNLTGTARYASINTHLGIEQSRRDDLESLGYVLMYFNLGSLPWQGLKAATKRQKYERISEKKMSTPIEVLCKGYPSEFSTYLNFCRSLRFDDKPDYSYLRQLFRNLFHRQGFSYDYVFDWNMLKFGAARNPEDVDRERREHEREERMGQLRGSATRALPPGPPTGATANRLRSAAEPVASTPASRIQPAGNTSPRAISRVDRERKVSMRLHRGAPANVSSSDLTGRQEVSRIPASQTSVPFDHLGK

For the compound `O=C(Nc1cn2nc(-c3cn(C4CC4)nc3-c3ccc(F)cc3)ccc2n1)c1ccnc(F)c1` [Compound 104, N-(6-(1-cyclopropyl-3-(4-fluorophenyl)-1H-pyrazol-4-yl)imidazo[1,2-b]pyridazin-2-yl)-2-fluoroisonicotinamide], the IC50 in test [1] turned out to be 15.2 nM; in test [2], 3.2 nM.

Consider `Cn1cc(-c2ccc3nc(NC(=O)C4CCCCCC4)cn3n2)c(-c2ccc(F)cc2)n1` [Compound 88], for which the IC50 in test [1] was 10.5 nM; in test [2] it was 4.2 nM.

For the compound `Cn1cc(-c2ccc3nc(NC(=O)c4nccs4)cn3n2)c(-c2ccc(F)cc2)n1` [Compound 37, N-(6-(3-(4-fluorophenyl)-1-methyl-1H-pyrazol-4-yl)imidazo[1,2-b]pyridazin-2-yl)thiazole-2-carboxamide], the IC50 in test [1] was 116 nM; in test [2], 30.5 nM.

Turning to `Cc1nc(-c2ccncc2)sc1C(=O)Nc1cn2nc(-c3c(-c4ccc(F)cc4)nn(C)c3C3CCN(C)CC3)ccc2n1` [Compound 180, N-(6-(3-(4-Fluorophenyl)-1-methyl-5-(1-methylpiperidin-4-yl)-1H-pyrazol-4-yl)imidazo[1,2-b]pyridazin-2-yl)-4-methyl-2-(pyridin-4-yl)thiazole-5-carboxamide], the IC50 in test [1] amounted to 7.1 nM; in test [2] it was 2.1 nM.

`COc1cc(C(=O)Nc2cn3nc(-c4c(-c5ccc(F)cc5)nn(C)c4N4CCNCC4)ccc3n2)ccn1` [Compound 118, N-(6-(3-(4-Fluorophenyl)-1-methyl-5-(piperazin-1-yl)-1H-pyrazol-4-yl)imidazo[1,2-b]pyridazin-2-yl)-2-methoxyisonicotinamide]: the IC50 in test [1] was determined as 3.6 nM; in test [2] it was 0.8 nM.

As to `Cc1nc(-c2ccncc2)sc1C(=O)Nc1cn2nc(-c3c(-c4ccc(F)cc4)nn(C)c3C3CCN(CCC#N)CC3)ccc2n1` [Compound 183, N-(6-(5-(1-(2-Cyanoethyl)piperidin-4-yl)-3-(4-fluorophenyl)-1-methyl-1H-pyrazol-4-yl)imidazo[1,2-b]pyridazin-2-yl)-4-methyl-2-(pyridin-4-yl)thiazole-5-carboxamide], the 50% inhibitory concentration (IC50) amounted to 2.4 nM in test [1] and 0.4 nM in test [2].

`Cn1nc(-c2ccc(F)cc2)c(-c2ccc3nc(NC(=O)c4ccnc(F)c4)cn3n2)c1C1CCN(C(=O)c2cncs2)CC1` [Compound 154, 2-fluoro-N-(6-(3-(4-fluorophenyl)-1-methyl-5-(1-(thiazole-5-carbonyl)piperidin-4-yl)-1H-pyrazol-4-yl)imidazo[1,2-b]pyridazin-2-yl)isonicotinamide]: the IC50 in test [1] and in test [2] was 0.3 nM each time.

For the compound `Cn1cc(-c2ccc3nc(NC(=O)c4ccnc(N5CCOCC5)c4)cn3n2)c(-c2ccc(F)cc2)n1` [Compound 69, N-(6-(3-(4-fluorophenyl)-1-methyl-1H-pyrazol-4-yl)imidazo[1,2-b]pyridazin-2-yl)-2-morpholinoisonicotinamide], the IC50 is 4.8 nM in test [1] and 2.3 nM in test [2].

In the case of `Cn1cc(-c2ccc3nc(NC(=O)c4ccc(Br)cc4F)cn3n2)c(-c2ccc(F)cc2)n1` [Compound 42, 4-bromo-2-fluoro-N-(6-(3-(4-fluorophenyl)-1-methyl-1H-pyrazol-4-yl)imidazo[1,2-b]pyridazin-2-yl)benzamide], the figures for the IC50 in test [1] and in test [2] were 13.7 nM and 2.3 nM, respectively.

For the compound `Cc1nc(-c2ccncc2)sc1C(=O)Nc1cn2nc(-c3c(-c4ccc(F)cc4)nn(C)c3C3CCN(CC(N)=O)CC3)ccc2n1` [Compound 184, N-(6-(5-(1-(2-Amino-2-oxoethyl)piperidin-4-yl)-3-(4-fluorophenyl)-1-methyl-1H-pyrazol-4-yl)imidazo[1,2-b]pyridazin-2-yl)-4-methyl-2-(pyridin-4-yl)thiazole-5-carboxamide], the IC50 in test [1] stood at 1.2 nM; in test [2], 0.3 nM.

On to `Cn1nc(-c2ccc(F)cc2)c(-c2ccc3nc(NC(=O)c4ccnc(F)c4)cn3n2)c1C1CCN(C[C@@H](O)C(F)(F)F)CC1` [Compound 158, (R)-2-Fluoro-N-(6-(3-(4-fluorophenyl)-1-methyl-5-(1-(3,3,3-trifluoro-2-hydroxypropyl)piperidin-4-yl)-1H-pyrazol-4-yl)imidazo[1,2-b]pyridazin-2-yl)isonicotinamide], for which the IC50 in test [1] worked out at 0.3 nM; in test [2], 0.2 nM.

For `Cn1cc(-c2ccc3nc(NC(=O)c4cc(-c5ccc(F)cc5)ncn4)cn3n2)c(-c2ccc(F)cc2)n1` [Compound 33, 6-(4-fluorophenyl)-N-(6-(3-(4-fluorophenyl)-1-methyl-1H-pyrazol-4-yl)imidazo[1,2-b]pyridazin-2-yl)pyrimidine-4-carboxamide], the IC50 in test [1] came to 454 nM; in test [2] it was 30.4 nM.

Take `Cn1cc(-c2ccc3nc(NC(=O)C4CCCC4)cn3n2)c(-c2ccc(F)cc2)n1` [Compound 86, N-(6-(3-(4-fluorophenyl)-1-methyl-1H-pyrazol-4-yl)imidazo[1,2-b]pyridazin-2-yl)cyclopentanecarboxamide]: the results for the IC50 in test [1] and in test [2] were 15.7 nM and 5.6 nM, respectively.

Take `Cn1nc(-c2ccc(F)cc2)c(-c2ccc3nc(NC(=O)c4ccnc(F)c4)cn3n2)c1N1CCN(C(=O)CC(F)(F)F)CC1` [Compound 121, 2-Fluoro-N-(6-(3-(4-fluorophenyl)-1-methyl-5-(4-(3,3,3-trifluoropropanoyl)piperazin-1-yl)-1H-pyrazol-4-yl)imidazo[1,2-b]pyridazin-2-yl)isonicotinamide]: the IC50 is 14.4 nM in test [1] and 1.2 nM in test [2].

Turning to `Cn1cc(-c2ccc3nc(NC(=O)c4cccc(F)c4)cn3n2)c(-c2ccc(F)cc2)n1` [Compound 23, 3-fluoro-N-(6-(3-(4-fluorophenyl)-1-methyl-1H-pyrazol-4-yl)imidazo[1,2-b]pyridazin-2-yl)benzamide], the IC50 was found to be 8.6 nM in test [1] and 2.6 nM in test [2].

For `Cn1nc(-c2ccc(F)cc2)c(-c2ccc3nc(NC(=O)c4cc(F)nc(F)c4)cn3n2)c1N1CCOCC1` [Compound 145, 2,6-difluoro-N-(6-(3-(4-fluorophenyl)-1-methyl-5-morpholino-1H-pyrazol-4-yl)imidazo[1,2-b]pyridazin-2-yl) isonicotinamide], the values for the half-inhibitory concentration (IC50) in test [1] and in test [2] were 22.8 nM and 1.4 nM, respectively.

On to `Cc1nc(-c2cccnc2)sc1C(=O)Nc1cn2nc(-c3c(-c4ccc(F)cc4)nn(C)c3C3CCNCC3)ccc2n1` [Compound 174, N-(6-(3-(4-Fluorophenyl)-1-methyl-5-(piperidin-4-yl)-1H-pyrazol-4-yl)imidazo[1,2-b]pyridazin-2-yl)-4-methyl-2-(pyridin-3-yl)thiazole-5-carboxamide], for which the IC50 was 1.8 nM in test [1] and 2.5 nM in test [2].

Consider `Cn1nc(-c2ccc(F)cc2)c(-c2ccc3nc(NC(=O)c4ccncc4)cn3n2)c1N1CCN(Cc2ccon2)CC1` [Compound 131, N-(6-(3-(4-Fluorophenyl)-5-(4-(isoxazol-3-ylmethyl)piperazin-1-yl)-1-methyl-1H-pyrazol-4-yl)imidazo[1,2-b]pyridazin-2-yl)isonicotinamide], for which the values for the IC50 in test [1] and in test [2] were 3.1 nM and 0.3 nM, respectively.

Regarding `Cn1nc(-c2ccc(F)cc2)c(-c2ccc3nc(NC(=O)c4ccncc4)cn3n2)c1C1CCN(C2CC2)CC1` [Compound 166, N-(6-(5-(1-cyclopropylpiperidin-4-yl)-3-(4-fluorophenyl)-1-methyl-1H-pyrazol-4-yl)imidazo[1,2-b]pyridazin-2-yl)isonicotinamide], the concentration for half-maximal inhibition (IC50) in test [1] was 1.9 nM; in test [2], 1.4 nM.

As for `Cn1cc(-c2ccc3nc(NC(=O)c4cnccc4C(F)(F)F)cn3n2)c(-c2ccc(F)cc2)n1` [Compound 63, N-(6-(3-(4-fluorophenyl)-1-methyl-1H-pyrazol-4-yl)imidazo[1,2-b]pyridazin-2-yl)-4-(trifluoromethyl) nicotinamide], the results for the IC50 in test [1] and in test [2] were 34.8 nM and 8 nM, respectively.

With `Cn1cc(-c2ccc3nc(NC(=O)c4ccc(OC(F)F)cc4F)cn3n2)c(-c2ccc(F)cc2)n1` [Compound 58, 4-(difluoromethoxy)-2-fluoro-N-(6-(3-(4-fluorophenyl)-1-methyl-1H-pyrazol-4-yl)imidazo[1,2-b]pyridazin-2-yl)benzamide], the IC50 amounted to 40.9 nM in test [1] and 6.9 nM in test [2].

As for `Cn1cc(-c2ccc3nc(NC(=O)c4ccc(C#N)c(F)c4)cn3n2)c(-c2ccc(F)cc2)n1` [Compound 48, 4-cyano-3-fluoro-N-(6-(3-(4-fluorophenyl)-1-methyl-1H-pyrazol-4-yl)imidazo[1,2-b]pyridazin-2-yl)benzamide], the results for the IC50 in test [1] and in test [2] were 23.4 nM and 5.7 nM, respectively.

As for `Cn1cc(-c2ccc3nc(NC(=O)c4ccc(OCC(F)(F)F)nc4)cn3n2)c(-c2ccc(F)cc2)n1` [Compound 68, N-(6-(3-(4-fluorrophenyl)-1-methyl-1H-pyrazol-4-yl)imidazo[1,2-b]pyridazin-2-yl)-6-(2,2,2-trifluoroethoxy)nicotinamide], the concentration for half-maximal inhibition (IC50) came out at 28.1 nM in test [1] and 4.4 nM in test [2].

Take `Cn1nc(-c2ccc(F)cc2)c(-c2ccc3nc(NC(=O)c4ccnc(F)c4)cn3n2)c1N1CCN(CCCF)CC1` [Compound 119, 2-Fluoro-N-(6-(3-(4-fluorophenyl)-5-(4-(3-fluoropropyl)piperazin-1-yl)-1-methyl-1H-pyrazol-4-yl)imidazo[1,2-b]pyridazin-2-yl)isonicotinamide]: the IC50 amounted to 10.1 nM in test [1] and 0.3 nM in test [2].

Consider `Cn1cc(-c2ccc3nc(NC(=O)c4ccccn4)cn3n2)c(-c2ccc(F)cc2)n1` [Compound 96, N-(6-(3-(4-fluorophenyl)-1-methyl-1H-pyrazol-4-yl)imidazo[1,2-b]pyridazin-2-yl)picolinamide], for which the concentration for half-maximal inhibition (IC50) came to 42 nM in test [1] and 11.8 nM in test [2].
